Test [1] deals with T1, human cloned 5-HT2A receptor (Homo sapiens, UniProt P28223).
T1 construct: expressed in transfected cells; host or cells: L929 cells
Kind of test: In vitro binding affinity for 5-HT2A receptor (radioligand binding). As to conditions: human cloned 5-HT2A receptor, radioligand binding; for IC50: read-out: h-5HT2A (converted). The protocol: During the incubation, the radioligands bind to the receptor. When equilibrium of binding is reached, the receptor bound radioactivity is separated from the non-bound radioactivity, and the receptor bound activity is counted. The interaction of the test compounds with the receptors is assessed in competition binding experiments. Various concentrations of the test compound are added to the incubation mixture containing the tissue preparation and the radioligand. Binding of the radioligand will be inhibited by the test compound in proportion to its binding affinity and its concentration. The affinities of the compounds for the 5-HT2 receptors were measured by means of radioligand binding studies conducted with: (a) human cloned 5-HT2A receptor, expressed in L929 cells using [^125I]R91150 as radioligand and (b) human cloned 5-HT2C receptor, expressed in CHO cells using [^3H]mesulergine as radioligand.

Test [2] has as its target T2, human Dopamine D2L receptor (Homo sapiens, UniProt P14416).
T2 construct: expressed in transfected cells; host or cells: CHO cells
The test is described as follows: In vitro binding affinity for human D2L receptor ([3H]Spiperone). As to conditions: human D2L receptor-transfected CHO cell membranes, [3H]Spiperone; read-out: h-D2L (converted). On the procedure: Frozen membranes of human Dopamine D2L receptor-transfected CHO cells were thawed, briefly homogenised using an Ultra-Turrax T25 homogeniser and diluted in Tris-HCl assay buffer containing NaCl, CaCl2, MgCl2, KCl (50, 120, 2, 1, and 5 mM respectively, adjusted to pH 7.7 with HCl) to an appropriate protein concentration optimised for specific and non-specific binding. Radioligand [^3H]Spiperone (NEN, specific activity ˜70 Ci/mmol) was diluted in assay buffer at a concentration of 2 nmol/L. Prepared radioligand (50 μl), along with 50 μl of either the 10% DMSO control, Butaclamol (10^−6 mol/l final concentration), or compound of interest, was then incubated (30 min, 37° C.) with 400 μl of the prepared membrane solution. Membrane-bound activity was filtered through a Packard Filtermate harvester onto GF/B Unifilterplates and washed with ice-cold Tris-HCl buffer (50 mM; pH 7.7; 6×0.5 ml). Filters were allowed to dry before adding scintillation fluid and counting in a Topcount scintillation counter. Percentage specific bound and competition binding curves were calculated using S-Plus software (Insightful).

Test [3] deals with T3, human cloned 5-HT2C receptor (Homo sapiens, UniProt P28335).
T3 construct: expressed in transfected cells; host or cells: CHO cells
T3 sequence (P28335 33-458): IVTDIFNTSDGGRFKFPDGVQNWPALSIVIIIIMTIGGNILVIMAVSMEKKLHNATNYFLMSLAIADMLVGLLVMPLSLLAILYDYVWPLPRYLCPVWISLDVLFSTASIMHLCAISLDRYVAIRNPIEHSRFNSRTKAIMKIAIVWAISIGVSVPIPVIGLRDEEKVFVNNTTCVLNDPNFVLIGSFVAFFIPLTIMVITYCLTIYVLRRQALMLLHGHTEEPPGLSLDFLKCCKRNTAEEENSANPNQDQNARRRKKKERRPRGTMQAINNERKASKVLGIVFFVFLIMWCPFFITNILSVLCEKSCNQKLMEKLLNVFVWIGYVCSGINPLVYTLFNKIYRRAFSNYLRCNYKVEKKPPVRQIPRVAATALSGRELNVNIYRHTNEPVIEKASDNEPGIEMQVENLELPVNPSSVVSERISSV
The test is described as follows: In vitro binding affinity for 5-HT2C receptor (radioligand binding). Particulars: human cloned 5-HT2C receptor, radioligand binding; for IC50: read-out: h-5HT2C (converted). On the procedure: During the incubation, the radioligands bind to the receptor. When equilibrium of binding is reached, the receptor bound radioactivity is separated from the non-bound radioactivity, and the receptor bound activity is counted. The interaction of the test compounds with the receptors is assessed in competition binding experiments. Various concentrations of the test compound are added to the incubation mixture containing the tissue preparation and the radioligand. Binding of the radioligand will be inhibited by the test compound in proportion to its binding affinity and its concentration.

One may read the pIC50 as the IC50 on a negative log10 scale, so that one unit is a factor of ten.

Structures are written as SMILES. pIC50: −log10 of the molar value. Read-outs that look alike come from different tables or passages of the source.

T1 sequence (P28223 whole entry): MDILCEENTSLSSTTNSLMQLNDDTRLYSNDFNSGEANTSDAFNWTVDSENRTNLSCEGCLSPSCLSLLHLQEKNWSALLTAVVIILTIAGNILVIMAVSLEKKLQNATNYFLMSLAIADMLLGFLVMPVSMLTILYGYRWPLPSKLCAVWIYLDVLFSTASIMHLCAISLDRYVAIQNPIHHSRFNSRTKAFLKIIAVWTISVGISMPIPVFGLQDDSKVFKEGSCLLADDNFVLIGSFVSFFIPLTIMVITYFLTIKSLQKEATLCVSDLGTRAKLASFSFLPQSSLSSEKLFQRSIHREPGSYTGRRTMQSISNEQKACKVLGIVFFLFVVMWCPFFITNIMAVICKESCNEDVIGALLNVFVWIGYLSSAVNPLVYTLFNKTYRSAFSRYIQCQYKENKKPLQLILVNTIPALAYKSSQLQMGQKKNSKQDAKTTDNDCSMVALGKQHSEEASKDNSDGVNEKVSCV
T2 sequence (P14416 whole entry): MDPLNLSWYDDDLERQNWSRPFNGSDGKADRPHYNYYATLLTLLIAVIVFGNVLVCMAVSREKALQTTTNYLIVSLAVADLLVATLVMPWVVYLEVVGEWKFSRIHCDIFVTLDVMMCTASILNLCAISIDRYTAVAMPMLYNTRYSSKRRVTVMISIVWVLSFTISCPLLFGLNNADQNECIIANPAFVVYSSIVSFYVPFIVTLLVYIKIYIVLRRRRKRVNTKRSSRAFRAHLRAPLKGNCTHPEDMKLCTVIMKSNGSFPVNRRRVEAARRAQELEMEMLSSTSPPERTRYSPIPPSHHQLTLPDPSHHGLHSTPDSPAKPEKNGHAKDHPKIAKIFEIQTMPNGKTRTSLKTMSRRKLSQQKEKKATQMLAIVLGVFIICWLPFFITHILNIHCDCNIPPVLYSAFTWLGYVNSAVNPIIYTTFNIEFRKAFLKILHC

Turning to `CN(C[C@H]1CC2=C(O1)c1cc(F)ccc1Cc1ccccc12)C1CC(=O)NC1=O` (mixture of isomers) [Compound 124], the values for the IC50 in test [1] and in test [2] were 0.0398 µM and above 10 µM, respectively.

`CNCC1CC2=C(O1)c1cc(F)ccc1Sc1ccccc12` (single isomer, unassigned) [Compound 13]: the IC50 in test [1] was 0.00316 µM; in test [3], 0.00398 µM; in test [2], 0.2 µM.

Take `CNCC1CC2=C(O1)c1cc(F)ccc1Sc1ccccc12` (single isomer, unassigned) [Compound 14]: in test [3], the IC50 was 0.0002 µM.

As for `CN(C)CC1CC2=C(O1)c1ccccc1Cc1ccccc12` (single isomer, unassigned) [Compound 23], the IC50 in test [3] was 0.0158 µM; in test [2], 1.58 µM.

Consider `CN(C)CC1CC2=C(O1)c1ccccc1Cc1ccccc12` (single isomer, unassigned) [Compound 24], for which the IC50 is 0.00126 µM in test [3] and 0.158 µM in test [2].

Consider `NCC1CC2=C(O1)c1cc(F)ccc1Cc1ccccc12` (stereo not shown) [Compound 1], for which the IC50 is 0.00158 µM in test [1] and 0.000794 µM in test [3].

For the compound `CNCC1CC2=C(O1)c1cc(Br)ccc1Cc1ccccc12` (stereo not shown) [Compound 5], the results for the IC50 in test [1], in test [3] and in test [2] were 0.000794 µM, 0.000794 µM and 0.0316 µM, respectively.

For `CCCCc1ccc2c(c1)C1=C(CC(CNC)O1)c1ccccc1C2` (stereo not shown) [Compound 6], the IC50 in test [1] is 0.0316 µM; in test [2], 0.251 µM.

On to `CNCC1CC2=C(O1)c1cc(F)ccc1C(C)c1ccccc12` (stereo not shown) [Compound 8], for which the IC50 in test [1] is 0.0316 µM; in test [3], 0.01 µM; in test [2] it was 2 µM.

For the compound `CCNCC1CC2=C(O1)c1cc(F)ccc1Sc1ccccc12` (stereo not shown) [Compound 18], the IC50 is 0.000398 µM in test [1], 0.00126 µM in test [3] and 0.0158 µM in test [2].

`OCCNCC1CC2=C(O1)c1cc(F)ccc1Cc1ccccc12` (stereo not shown) [Compound 19]: the IC50 in test [1] is 0.00158 µM; in test [3] it was 0.001 µM; in test [2], 0.0631 µM.

`CN(C)CC1CC2=C(O1)c1ccccc1Cc1ccccc12` (stereo not shown) [Compound 22]: the IC50 in test [1] and in test [3] was 0.00398 µM each time.

As for `CN(C)CC1CC2=C(O1)c1ccccc1Oc1ccccc12` (stereo not shown) [Compound 25], the values for the IC50 in test [1], in test [3] and in test [2] were 0.0631 µM, 0.02 µM and 1.26 µM, respectively.

For the compound `CN(C)CC1CC2=C(O1)c1cc(F)ccc1Oc1ccccc12` (stereo not shown) [Compound 26], the IC50 in test [1] is 0.01 µM; in test [3] it was 0.00794 µM.

With `CN(C)CC1CC2=C(O1)c1cc(Br)ccc1Oc1ccccc12` (stereo not shown) [Compound 27], the IC50 was 0.00794 µM in test [1] and 0.00251 µM in test [3].

In the case of `CN(C)CC1CC2=C(O1)c1cc(F)ccc1Sc1ccccc12` (stereo not shown) [Compound 28], the IC50 is 0.000398 µM in test [1] and 0.0126 µM in test [2].

In the case of `CN(CCO)CC1CC2=C(O1)c1cc(F)ccc1Cc1ccccc12` (stereo not shown) [Compound 31], the IC50 in test [1] was 0.00251 µM; in test [3], 0.00158 µM.

As to `CN(CCO)CC1CC2=C(O1)c1cc(F)ccc1Oc1ccccc12` (stereo not shown) [Compound 32], the IC50 in test [1] was 0.0158 µM; in test [3] it was 0.0251 µM.

Turning to `OC1CCN(CC2CC3=C(O2)c2cc(F)ccc2Cc2ccccc23)C1` (stereo not shown) [Compound 33], the IC50 in test [1] was 0.000794 µM; in test [3], 0.000794 µM; in test [2] it was 0.0398 µM.

In the case of `OC1CCN(CC2CC3=C(O2)c2cc(F)ccc2Sc2ccccc23)C1` (stereo not shown) [Compound 34], the IC50 in test [1] is 0.000126 µM; in test [2] it was 0.01 µM.

Turning to `OC1CCCN(CC2CC3=C(O2)c2cc(F)ccc2Cc2ccccc23)C1` (stereo not shown) [Compound 37], the IC50 in test [1] is 0.001 µM; in test [3] it was 0.002 µM; in test [2], 0.02 µM.

Take `OCCC1CCN(CC2CC3=C(O2)c2cc(F)ccc2Cc2ccccc23)CC1` (stereo not shown) [Compound 38]: the results for the IC50 in test [1], in test [3] and in test [2] were 0.000316 µM, 0.00126 µM and 0.002 µM, respectively.

Regarding `COc1cc2c(cc1OC)CN(CC1CC3=C(O1)c1cc(F)ccc1Cc1ccccc13)CC2` (stereo not shown) [Compound 40], the IC50 in test [1] was 0.00631 µM; in test [3], 0.00251 µM; in test [2], 0.0501 µM.

On to `OCCN1CCN(CC2CC3=C(O2)c2cc(F)ccc2Cc2ccccc23)CC1` (stereo not shown) [Compound 41], for which the IC50 in test [1] was 0.00501 µM; in test [3] it was 0.0126 µM; in test [2], 0.01 µM.

On to `OCCN1CCN(CC2CC3=C(O2)c2cc(F)ccc2Sc2ccccc23)CC1` (stereo not shown) [Compound 42], for which the IC50 is 0.00316 µM in test [1], 0.01 µM in test [3] and 0.00501 µM in test [2].

On to `CS(=O)(=O)N1CCN(CC2CC3=C(O2)c2cc(F)ccc2Oc2ccccc23)CC1` (stereo not shown) [Compound 45], for which the figures for the IC50 in test [1], in test [3] and in test [2] were 0.0794 µM, 0.1 µM and 0.794 µM, respectively.

Turning to `O=S(=O)(Cc1ccccc1)N1CCN(CC2CC3=C(O2)c2cc(F)ccc2Cc2ccccc23)CC1` (stereo not shown) [Compound 51], the IC50 in test [1] was 0.0794 µM; in test [3], 0.2 µM; in test [2], 0.1 µM.

For `O=S(=O)(Cc1ccccc1)N1CCN(CC2CC3=C(O2)c2cc(F)ccc2Oc2ccccc23)CC1` (stereo not shown) [Compound 52], the IC50 was 0.1 µM in test [1], 0.2 µM in test [3] and 0.158 µM in test [2].

In the case of `CC(=O)N1CCN(CC2CC3=C(O2)c2cc(F)ccc2Cc2ccccc23)CC1` (stereo not shown) [Compound 53], the IC50 was 0.00398 µM in test [1], 0.00794 µM in test [3] and 0.2 µM in test [2].

Regarding `CC(=O)N1CCN(CC2CC3=C(O2)c2cc(F)ccc2Oc2ccccc23)CC1` (stereo not shown) [Compound 54], the IC50 was 0.0316 µM in test [1] and 0.1 µM in test [3].

For `CCCC(=O)N1CCN(CC2CC3=C(O2)c2cc(F)ccc2Cc2ccccc23)CC1` (stereo not shown) [Compound 55], the results for the IC50 in test [1], in test [3] and in test [2] were 0.00398 µM, 0.01 µM and 0.316 µM, respectively.

In the case of `CCCC(=O)N1CCN(CC2CC3=C(O2)c2cc(F)ccc2Oc2ccccc23)CC1` (stereo not shown) [Compound 56], the IC50 was 0.1 µM in test [1], 0.1 µM in test [3] and 1.26 µM in test [2].

For `O=C(C1CC1)N1CCN(CC2CC3=C(O2)c2cc(F)ccc2Cc2ccccc23)CC1` (stereo not shown) [Compound 57], the IC50 in test [1] was 0.00398 µM; in test [3], 0.02 µM; in test [2], 0.316 µM.

With `COC(=O)CC(=O)N1CCN(CC2CC3=C(O2)c2cc(F)ccc2Cc2ccccc23)CC1` (stereo not shown) [Compound 59], the IC50 in test [1] was 0.002 µM; in test [3], 0.00501 µM; in test [2] it was 0.316 µM.

As for `CCCCNC(=O)N1CCN(CC2CC3=C(O2)c2cc(F)ccc2Cc2ccccc23)CC1` (stereo not shown) [Compound 77], the IC50 in test [1] was 0.00398 µM; in test [2], 0.126 µM.

`CCCCNC(=O)N1CCN(CC2CC3=C(O2)c2cc(F)ccc2Oc2ccccc23)CC1` (stereo not shown) [Compound 78]: the IC50 in test [1] is 0.0794 µM; in test [3], 0.0501 µM.

On to `O=C(NC1CCCCC1)N1CCN(CC2CC3=C(O2)c2cc(F)ccc2Cc2ccccc23)CC1` (stereo not shown) [Compound 79], for which the IC50 was 0.0398 µM in test [1] and 1.58 µM in test [2].

For the compound `O=C(Nc1ccc(F)cc1)N1CCN(CC2CC3=C(O2)c2cc(F)ccc2Cc2ccccc23)CC1` (stereo not shown) [Compound 85], the IC50 in test [1] is 0.00316 µM; in test [2], 0.1 µM.

For the compound `CN(C[C@H]1CC2=C(O1)c1cc(F)ccc1Cc1ccccc12)C(=O)Oc1ccccc1` [Compound 111], the pIC50 in test [1] (h-5HT2A) was 6.70; in test [3] (h-5HT2C), 8.40.

Values taken from patent publication US8022102B2, “Unsaturated tetracyclic tetrahydrofuran derivatives” (Janssen Pharmaceutica, NV, priority 2004, dated 2011).
